In patent US20030219866A1, “Stem cell-like cells” (priority 2000, published 2003):

Key:
Type in all cases: cell-based
TSA treated cells = test: UTF1 expression and TGF-beta/activin/BMP responsiveness of TSA treated cells
[1] = tested on: mouse Neural Progenitor Cells; test: OCT4 expression after TSA treatment in mNPC (RT-PCR); set-up: key to OCT4 expression: +/− expression detectable; (+) clear expression; (++ strong expression); settings: for OCT4 expression: mNPC (eGFP/bcl2), RT-PCR
Description: (§1) (a) RNA isolation and eDNA synthesis. At the time of harvest, medium was aspirated and cells were lyzed using Ultraspec™ (Biotecx) or Trizol® (Gibco BRL). RNA was isolated according to the instructions of the suppliers. RNA concentration was determined by measuring OD260 and equal amounts of RNA of the indicated cell lines were subjected to conversion into cDNA. RNA was reversed transcribed using random primers and 15 units M-MuLV (Promega) in a reaction mixture containing 4 μl 25 mM MgCl2, 2 μl of each of the four dNTPs at 10 mM and 0.5 μl RNasin (Promega) in a total volume of 20 μl. RNA and 0.5 μg random hexamers were pre-incubated for 10 minutes at 55-60°. Mixtures were incubated at 37° C. for 1 hour.
(§2) (b) PCR reactions. PCR was were performed using 2 μl cDNA, 2.5 μl 10× SuperTaq buffer (without magnesium), 0.25 μl forward primer, 0.25 μl reverse primer, 0.50 μl 10 mM dNTPs, 1.25 Units of SuperTaq polymerase. In the case of β2-microglobulin 1.5 mM MgCl2 was added to the reaction mixture. For mouse UTF1 PCR, normal Taq polymerase (Roche) was used with a buffer containing MgCl2. The conditions for the PCR reaction were: 5 minutes 94° C.; 28 cycles of 30 seconds 94° C., 30 seconds 60° C. and 30 seconds 72° C.; 10 minutes 72° C., using a PTC-200, Peltier Thermal cycler. PCR-fragments were run on a 2% agarose gel and visualized by ethidium bromide staining.
(§3) HDAC activity is inhibited by Trichostatin A (TSA). Human mesenchymal stem cells and mouse and human neuronal progenitor cells were treated by TSA at concentration of 10 and 50 ng/ml. After 24 and 48 hours, OCT4 expression was analyzed by RT-PCR.

[2] = tested on: human Neural Progenitor Cells; test: OCT4 expression after TSA treatment in hNPC (RT-PCR); set-up: key to OCT4 expression: +/− expression detectable; (+) clear expression; (++ strong expression); settings: for OCT4 expression: hNPC, RT-PCR
Description: as §1, §2, §3

[3] = tested on: human Mesenchymal Stem Cells; test: OCT4 expression after TSA treatment in hMSC (RT-PCR); set-up: key to OCT4 expression: +/− expression detectable; (+) clear expression; (++ strong expression); settings: for OCT4 expression: hMSC, RT-PCR
Description: as §1, §2, §3

Q: How did the “TGF-beta, activin and BMP responsiveness” value (TSA treated cells) turn out when CC(/C=C/C(=O)NO)=C\[C@@H](C)C(=O)c1ccc(N(C)C)cc1 [TSA, Trichostatin A] was run?
A: reduction

Q: What about the “expression of UTF1” value (TSA treated cells) of the same molecule?
A: increased

Q: And the OCT4 expression ([1]; TSA 10 ng/ml, 24 hours)?
A: +

Q: And the OCT4 expression ([1]; TSA 10 ng/ml, 48 hours)?
A: ++

Q: And the OCT4 expression ([1]; TSA 50 ng/ml, 24 hours)?
A: +

Q: What about the “expression of OCT4” value ([1]; mouse neural progenitor cells, TSA treatment for 24 to 48 hours) of the same molecule?
A: enhances

Q: And the OCT4 expression ([2]; TSA 10 ng/ml, 24 hours)?
A: +

Q: And the OCT4 expression ([2]; TSA 10 ng/ml, 48 hours)?
A: ++

Q: What about the OCT4 expression ([2]; TSA 50 ng/ml, 24 hours) of the same molecule?
A: +

Q: What about the SSEA4 expression ([2]; human Neural Progenitor Cells, TSA treated, in parallel with upregulation of OCT4) of the same molecule?
A: increased

Q: And the “expression of OCT4” value ([2]; human Neural Progenitor Cells, TSA treatment for 24 to 48 hours)?
A: enhances

Q: What about the OCT4 expression ([3]; TSA 10 ng/ml, 24 hours) of the same molecule?
A: +

Q: And the OCT4 expression ([3]; TSA 10 ng/ml, 48 hours)?
A: ++

Q: What about the OCT4 expression ([3]; TSA 50 ng/ml, 24 hours) of the same molecule?
A: +

Q: What about the OCT4 expression ([3]; TSA 50 ng/ml, 48 hours) of the same molecule?
A: ++

Q: What about the SSEA4 expression ([3]; human MSC, TSA treated, in parallel with upregulation of OCT4) of the same molecule?
A: increased

Q: And the “expression of OCT4” value ([3]; human MSC, TSA treatment for 24 to 48 hours)?
A: enhances
